# Data from US10314806B2 (SICHUAN JIUZHANG BIOLOGICAL SCIENCE AND TECHNOLOGY CO., LTD., priority 2014, dated 2019).
# Tests used:
# Format in all cases: in vivo
# Lewis lung cancer = assay: Inhibition of mice-transplanted tumor of Lewis lung cancer C57BL/6; conditions: 12 times
# Protocol: Animal C57BL/6 mice, body weight 13˜20 g, half male and half female.
# Cell Lines Lewis cells were mice lung cancer cells, and grew adhering to the wall in RPMI-1640 media containing 10% calf serum, 100 U·ml^−1 penicillin, 100 μg·ml^−1 streptomycin, and were cultured in an incubator at 37° C. under 5% CO2, followed by changing the medium and subculturing every two or three days.
# (§1) Viable cells were counted by trypan blue staining. Cell suspension was subcutaneously inoculated at the left forelimb armpit of mice at 0.2 ml/animal (containing about 1×10^7 cells), and after tumor grew to 1 cm×1 cm×1 cm, mice were used in experiment. Mice tumors were aseptically stripped, and washed with Hank's solution thrice, to remove blood, fat and necrotic tissues. Tumors were cut to broken pieces of 1 mm×1 mm×1 mm, and washed with Hank's solution twice, to which physiological saline was added at a ratio of (1 g:3 ml), and then ground in a glass homogenizer and filtered by 80-100 mesh sieve to make a suspension of single cell. Viable cells were counted by trypan blue staining.
# On the second day after inoculation, a dosage of 0.2 ml·10 g^−1 was administrated to each group by peritoneal injection (ip) for successive 12 times, once a day. When the tumor weight in negative control group was more than 1.0 g (tumor volume being about 0.5 cm^3), the experiment was stopped, and mice were sacrificed by cervical vertebrae removal and weighed. Tumors were stripped to calculate inhibitory rate.
# H22 liver cancer = assay: Inhibition of KM mice-transplanted tumor of H22 liver cancer
# Protocol: (1) Animal Kunming mice, half male and half female, body weight 16˜27 g.
# Cell Lines H22 cell lines were mice liver cancer cells, and were subjected to suspension growth in RPMI-1640 media containing 10% calf serum, 100 U·ml^−1 penicillin, 100 μg·ml^−1 streptomycin, and cultured in an incubator at 37° C. under 5% CO2, followed by changing the medium and subculturing every two or three days.
# Cell Culture H22 cells in exponential phase of growth were collected, centrifugated at 1000 rpm for 5 min, and washed twice. Viable cells were counted by trypan blue staining. The cells were quickly inoculated in abdominal cavity of KM mice, and after 7˜10 days, ascites were drawn and subcutaneously inoculated at the left forelimb armpit of mice at 0.2 ml/animal (containing about 2×10^7 cells). When tumor grew to 1 cm×1 cm×1 cm, mice were used in experiment. Mice tumors were aseptically stripped, and washed with Hank's solution thrice, to remove blood, fat and necrotic tissues. Tumors were cut to broken pieces of 1 mm×1 mm×1 mm, and washed with Hank's solution twice, to which physiological saline was added at a ratio of (1 g:3 ml), and then ground in a glass homogenizer and filtered by 80-100 mesh sieve to make a suspension of single cell. Viable cells were counted by trypan blue staining.
# On the second day after inoculation, a dosage of 0.2 ml·10 g^−1 was administrated by intravenous injection (iv), once a day. When the average tumor weight in negative group was more than 1.0 g (tumor volume being about 0.5 cm^3), the experiment was stopped, and mice were sacrificed by cervical vertebrae removal and weighed. Tumors were stripped to calculate inhibitory rate.
# EMT-6 breast cancer = assay: Inhibition of BABLc mice-transplanted tumor of EMT-6 breast cancer; conditions: 9 days
# Protocol: (1) Animal BABLc mice, ♀, body weight 17˜21 g
# Cell Lines EMT-6 cell lines were mice breast cancer cells, and grew adhering to the wall in RPMI-1640 complete media containing 10% calf serum, 1 mmol/L glutamine, 100 U·ml^−1 penicillin and 100 μg·ml^−1 streptomycin, and were cultured in an incubator at 37° C. under 5% CO2, followed by changing the medium and subculturing every two or three days.
# as §1
# On the second day after inoculation, a dosage of 0.2 ml·10 g^−1 was administrated to each group by intraperitoneal injection (ip) for successive 9 days, once a day. When the tumor weight in negative group was more than 1.0 g(tumor volume being about 0.5 cm^3), the experiment was stopped, and mice were sacrificed by cervical vertebrae removal and weighed. Tumors were stripped to calculate inhibitory rate.
smiles,measurement,setting,value
"O=C(/C=C/c1ccc(O)c(O)c1)O[C@@H]1C[C@](O)(C(=O)O)C[C@@H](O)[C@H]1O [Commercially available chlorogenic acid, chlorogenic acid, reference compound]",Inhibitory rate,Lewis lung cancer; 1 mg·kg^−1 ip once a day,3.2%
same,Tumor weight,Lewis lung cancer; 1 mg·kg^−1 ip once a day,1.437 ± 0.466 g
same,Inhibitory rate,Lewis lung cancer; 5 mg·kg^−1 ip once a day,6.6%
same,Tumor weight,Lewis lung cancer; 5 mg·kg^−1 ip once a day,1.386 ± 0.398 g
same,Inhibitory rate,Lewis lung cancer; 10 mg·kg^−1 ip once a day,23.5%
same,Inhibitory rate,Lewis lung cancer; 20 mg·kg^−1 ip once a day,32.9%
same,Tumor weight,Lewis lung cancer; 20 mg·kg^−1 ip once a day,0.996 ± 0.428 g
same,Inhibitory rate,Lewis lung cancer; 30 mg·kg^−1 ip once a day,32.5%
same,Tumor weight,Lewis lung cancer; 30 mg·kg^−1 ip once a day,1.001 ± 0.204 g
same,Inhibitory rate,Lewis lung cancer; 40 mg·kg^−1 ip once a day,31.8%
same,Tumor weight,Lewis lung cancer; 40 mg·kg^−1 ip once a day,1.012 ± 0.369 g
same,Inhibitory rate,Lewis lung cancer; 50 mg·kg^−1 ip once a day,25.3%
same,Inhibitory rate,Lewis lung cancer; 60 mg·kg^−1 ip once a day,21.6%
same,Inhibitory rate,Lewis lung cancer; 70 mg·kg^−1 ip once a day,17.8%
same,Tumor weight,Lewis lung cancer; 70 mg·kg^−1 ip once a day,1.220 ± 0.237 g
same,Inhibitory rate,Lewis lung cancer; 80 mg·kg^−1 ip once a day,14.2%
same,Tumor weight,Lewis lung cancer; 80 mg·kg^−1 ip once a day,1.273 ± 0.511 g
same,Inhibitory rate,Lewis lung cancer; 90 mg·kg^−1 ip once a day,12.4%
same,Tumor weight,Lewis lung cancer; 90 mg·kg^−1 ip once a day,1.300 ± 0.462 g
same,Inhibitory rate,Lewis lung cancer; 100 mg·kg^−1 ip once a day,8.6%
same,Tumor weight,Lewis lung cancer; 100 mg·kg^−1 ip once a day,1.356 ± 0.338 g
same,Inhibitory rate,H22 liver cancer; 1 mg·kg^−1 iv once a day,5.1%
same,Tumor weight,H22 liver cancer; 1 mg·kg^−1 iv once a day,2.228 ± 0.538 g
same,Inhibitory rate,H22 liver cancer; 5 mg·kg^−1 iv once a day,17.4%
same,Tumor weight,H22 liver cancer; 5 mg·kg^−1 iv once a day,1.939 ± 0.357 g
same,Inhibitory rate,"H22 liver cancer; 10 mg·kg^−1 iv once a day, listed as Commercially availaavailable chlorogenic",32.6%
same,Inhibitory rate,"H22 liver cancer; 20 mg·kg^−1 iv once a day, listed as Commercially availaavailable chlorogenic",31.8%
same,Inhibitory rate,H22 liver cancer; 30 mg·kg^−1 iv once a day,31.9%
same,Inhibitory rate,H22 liver cancer; 40 mg·kg^−1 iv once a day,28.1%
same,Inhibitory rate,H22 liver cancer; 50 mg·kg^−1 iv once a day,23.4%
same,Tumor weight,H22 liver cancer; 50 mg·kg^−1 iv once a day,1.799 ± 0.462 g
same,Inhibitory rate,H22 liver cancer; 60 mg·kg^−1 iv once a day,21.3%
same,Tumor weight,H22 liver cancer; 60 mg·kg^−1 iv once a day,1.848 ± 0.741 g
same,Inhibitory rate,H22 liver cancer; 70 mg·kg^−1 iv once a day,14.6%
same,Tumor weight,H22 liver cancer; 70 mg·kg^−1 iv once a day,2.005 ± 0.345 g
same,Inhibitory rate,H22 liver cancer; 80 mg·kg^−1 iv once a day,13.7%
same,Tumor weight,H22 liver cancer; 80 mg·kg^−1 iv once a day,2.026 ± 0.611 g
same,Inhibitory rate,H22 liver cancer; 90 mg·kg^−1 iv once a day,9.8%
same,Tumor weight,H22 liver cancer; 90 mg·kg^−1 iv once a day,2.118 ± 0.557 g
same,Inhibitory rate,H22 liver cancer; 100 mg·kg^−1 iv once a day,7.2%
same,Tumor weight,H22 liver cancer; 100 mg·kg^−1 iv once a day,2.179 ± 0.341 g
same,Inhibitory rate,EMT-6 breast cancer; 1 mg·kg^−1 ip once a day,3.13%
same,Tumor weight,EMT-6 breast cancer; 1 mg·kg^−1 ip once a day,1.299 ± 0.253 g
same,Inhibitory rate,EMT-6 breast cancer; 5 mg·kg^−1 ip once a day,4.18%
same,Tumor weight,EMT-6 breast cancer; 5 mg·kg^−1 ip once a day,1.285 ± 0.324 g
same,Inhibitory rate,EMT-6 breast cancer; 10 mg·kg^−1 ip once a day,5.00%
same,Tumor weight,EMT-6 breast cancer; 10 mg·kg^−1 ip once a day,1.274 ± 0.854 g
same,Inhibitory rate,EMT-6 breast cancer; 20 mg·kg^−1 ip once a day,10.44%
same,Inhibitory rate,EMT-6 breast cancer; 30 mg·kg^−1 ip once a day,11.63%
same,Inhibitory rate,EMT-6 breast cancer; 40 mg·kg^−1 ip once a day,16.11%
same,Inhibitory rate,EMT-6 breast cancer; 50 mg·kg^−1 ip once a day,16.85%
same,Inhibitory rate,EMT-6 breast cancer; 60 mg·kg^−1 ip once a day,24.76%
same,Tumor weight,EMT-6 breast cancer; 60 mg·kg^−1 ip once a day,1.009 ± 0.123 g
same,Inhibitory rate,EMT-6 breast cancer; 70 mg·kg^−1 ip once a day,6.49%
same,Tumor weight,EMT-6 breast cancer; 70 mg·kg^−1 ip once a day,1.254 ± 0.514 g
same,Inhibitory rate,EMT-6 breast cancer; 80 mg·kg^−1 ip once a day,4.62%
same,Tumor weight,EMT-6 breast cancer; 80 mg·kg^−1 ip once a day,1.279 ± 0143 g
same,Inhibitory rate,EMT-6 breast cancer; 90 mg·kg^−1 ip once a day,3.21%
same,Tumor weight,EMT-6 breast cancer; 90 mg·kg^−1 ip once a day,1.298 ± 0.423 g
same,Inhibitory rate,EMT-6 breast cancer; 100 mg·kg^−1 ip once a day,2.16%
same,Tumor weight,EMT-6 breast cancer; 100 mg·kg^−1 ip once a day,1.312 ± 0.087 g
